Results as given in ChEMBL document CHEMBL4680330, “Soloxolone methyl, as a 18βH-glycyrrhetinic acid derivate, may result in endoplasmic reticulum stress to induce apoptosis in breast cancer cells” (Bioorg Med Chem, 2021).
The source made the active and inactive calls. No cut-off for these calls is given here.

Legend:
MDA-MB-231 [1] = assay: Induction of apoptosis in human MDA-MB-231 cells assessed as early apoptotic cells at 10 uM incubated for 24 hrs by annexin V-FITC and PI staining based flow cytometry analysis (reference value: 0.70 %); type: functional
MDA-MB-231 [2] = assay: Induction of cell death in human MDA-MB-231 cells assessed as downregulation of MLKL gene at 10 uM measured after 48 hrs by RT-PCR analysis; type: functional, cell-based
MCF7 [3] = assay: Induction of apoptosis in human MCF7 cells assessed as PARP level at 10 uM incubated for 24 hrs by Western blot analysis (reference value: 1); type: functional
MCF7 [4] = assay: Induction of cell death in human MCF7 cells assessed as upregulation of HRK gene at 10 uM incubated for 24 hrs by RT-PCR analysis; type: functional, cell-based
MCF7 [5] = assay: Induction of apoptosis in human MCF7 cells assessed as cytokeratin 18 by measuring increase in M-30 level at 10 uM incubated for 24 hrs by ELISA; type: functional, cell-based
MDA-MB-231 [6] = assay: Induction of ROS production in human MDA-MB-231 cells at 10 uM incubated for 24 hrs by flow cytometry analysis relative to control; type: functional
MDA-MB-231 [7] = assay: Induction of apoptosis in human MDA-MB-231 cells assessed as viable cells at 10 uM incubated for 24 hrs by annexin V-FITC and PI staining based flow cytometry analysis (reference value: 94.40 %); type: functional; conditions: read-out: Activity
MDA-MB-231 [8] = assay: Induction of cell death in human MDA-MB-231 cells assessed as upregulation of HRK gene at 10 uM incubated for 48 hrs by RT-PCR analysis; type: functional, cell-based
MDA-MB-231 [9] = assay: Induction of apoptosis in human MDA-MB-231 cells assessed as late apoptotic cells at 10 uM incubated for 24 hrs by annexin V-FITC and PI staining based flow cytometry analysis (reference value: 3.95 %); type: functional
MDA-MB-231 [10] = assay: Induction of late apoptosis in human MDA-MB-231 cells assessed as increase in rate of formation of pycnotic nuclei at 10 uM by Hoechst 33342 and PI staining based fluorescence microscopic analysis; type: functional, cell-based; conditions: TDE = time-dependent effect
MCF7 [11] = assay: Cytotoxicity against human MCF7 cells assessed as reduction in cell viability incubated for 48 hrs by ATP based luminometry; type: functional; conditions: MCF7, 48 h
MDA-MB-231 [12] = assay: Induction of early apoptosis in human MDA-MB-231 cells assessed as increase in rate of formation of pycnotic nuclei at 10 uM incubated for 24 hrs by Hoechst 33342 and PI staining based fluorescence microscopic analysis; type: functional, cell-based
MCF7 [13] = assay: Induction of apoptosis in human MCF7 cells assessed as cytokeratin 18 by measuring increase in M-30 level at 10 uM incubated for 48 hrs by ELISA; type: functional, cell-based
MDA-MB-231 [14] = assay: Induction of early apoptosis in human MDA-MB-231 cells assessed as increase in PI negativity at 10 uM incubated for 24 hrs by Hoechst 33342 and PI staining based fluorescence microscopic analysis; type: functional, cell-based
MDA-MB-231 [15] = assay: Induction of cell death in human MDA-MB-231 cells assessed as upregulation of BECN1 gene at 10 uM measured after 48 hrs by RT-PCR analysis; type: functional, cell-based
MCF7 [16] = assay: Cytotoxicity against human MCF7 cells assessed as reduction in cell viability incubated for 24 hrs by ATP based luminometry; type: functional; conditions: MCF7, 24 h
MCF7 [17] = assay: Induction of early apoptosis in human MCF7 cells assessed as increase in PI negativity at 10 uM incubated for 24 hrs by Hoechst 33342 and PI staining based fluorescence microscopic analysis; type: functional, cell-based
MCF7 [18] = assay: Induction of cell death in human MCF7 cells assessed as downregulation of MLKL gene at 10 uM measured after 48 hrs by RT-PCR analysis; type: functional, cell-based
[19] = Induction of caspase 3/7 activity in human MCF7 cells assessed as induction of apoptosis by measuring necrotic cells at 10 uM incubated for 24 hrs by flow cytometry analysis (reference value: 3.30 %); type: functional
[20] = system: Epidermoid carcinoma cell line; assay: Cytotoxicity against human Epidermoid carcinoma cell line; type: functional, cell-based
MDA-MB-231 [21] = assay: Induction of endoplasmic reticulum stress in human MDA-MB-231 cells assessed as BIP expression at 10 uM incubated for 24 hrs by Western blot analysis (reference value: 1); type: functional
MDA-MB-231 [22] = assay: Cytotoxicity against human MDA-MB-231 cells assessed as reduction in cell viability incubated for 48 hrs by ATP based luminometry; type: functional; conditions: MDA-MB-231, 48 h
MDA-MB-231 [23] = assay: Induction of endoplasmic reticulum stress in human MDA-MB-231 cells assessed as CHOP expression at 10 uM incubated for 24 hrs by Western blot analysis (reference value: 1); type: functional
MDA-MB-231 [24] = assay: Induction of apoptosis in human MDA-MB-231 cells assessed as pro-caspase 3 level at 10 uM incubated for 24 hrs by Western blot analysis (reference value: 1); type: functional
MDA-MB-231 [25] = assay: Induction of apoptosis in human MDA-MB-231 cells assessed as PARP level at 10 uM incubated for 24 hrs by Western blot analysis (reference value: 1); type: functional
MCF7 [26] = assay: Induction of apoptosis in human MCF7 cells assessed as cleaved pro-caspase 3 level at 10 uM incubated for 24 hrs by Western blot analysis (reference value: 1); type: functional
MDA-MB-231 [27] = assay: Induction of endoplasmic reticulum stress in human MDA-MB-231 cells assessed as IRE1-alpha expression at 10 uM incubated for 24 hrs by Western blot analysis (reference value: 1); type: functional
MCF7 [28] = assay: Induction of late apoptosis in human MCF7 cells assessed as increase in PI […] at 10 uM by Hoechst 33342 and PI staining based fluorescence microscopic analysis; type: functional, cell-based; conditions: TDE = time-dependent effect
MCF7 [29] = assay: Induction of apoptosis in human MCF7 cells assessed as necrotic cells at 10 uM incubated for 24 hrs by annexin V-FITC and PI staining based flow cytometry analysis (reference value: 15.60 %); type: functional
MCF7 [30] = assay: Induction of apoptosis in human MCF7 cells assessed as early apoptotic cells at 10 uM incubated for 24 hrs by annexin V-FITC and PI staining based flow cytometry analysis (reference value: 0.20 %); type: functional
MDA-MB-231 [31] = assay: Induction of apoptosis in human MDA-MB-231 cells assessed as necrotic cells at 10 uM incubated for 24 hrs by annexin V-FITC and PI staining based flow cytometry analysis (reference value: 0.95 %); type: functional
MCF7 [32] = assay: Induction of apoptosis in human MCF7 cells assessed as cleaved pro-caspase 8 level at 10 uM incubated for 24 hrs by Western blot analysis (reference value: 1); type: functional
MCF7 [33] = assay: Induction of apoptosis in human MCF7 cells assessed as pro-caspase 8 level at 10 uM incubated for 24 hrs by Western blot analysis (reference value: 1); type: functional
MCF7 [34] = assay: Induction of endoplasmic reticulum stress in human MCF7 cells assessed as IRE1-alpha expression at 10 uM incubated for 24 hrs by Western blot analysis (reference value: 1); type: functional
[35] = Induction of caspase 3/7 activity in human MDA-MB-231 cells assessed as induction of apoptosis by measuring necrotic cells at 10 uM incubated for 24 hrs by flow cytometry analysis (reference value: 0.85 %); type: functional
MCF7 [36] = assay: Induction of cell death in human MCF7 cells assessed as upregulation of BECN1 gene at 10 uM measured after 48 hrs by RT-PCR analysis; type: functional, cell-based

## COC(=O)[C@@]1(C)CC[C@]2(C)CC[C@]3(C)[C@H](C(=O)C=C4[C@@]5(C)C=C(C#N)C(=O)C(C)(C)[C@@H]5CC[C@]43C)[C@@H]2C1
MDA-MB-231 [1]
  Activity: 2.95%
MDA-MB-231 [2]
  Activity: inactive
MCF7 [3]
  fold change (FC): 0.3
MCF7 [4]
  Activity: Active
MCF7 [5]
  Activity: inactive
MDA-MB-231 [6]
  Activity: 49.6%
MDA-MB-231 [7]
  viability at 10 µM: 25.2%
MDA-MB-231 [8]
  Activity: Active
MDA-MB-231 [9]
  Activity: 69.55%
MDA-MB-231 [10]
  Activity: Tde
MCF7 [11]
  IC50: 4.22 µM
MDA-MB-231 [12]
  Activity: Active
MCF7 [13]
  Activity: Active
MDA-MB-231 [14]
  Activity: Active
MDA-MB-231 [15]
  Activity: inactive
MCF7 [16]
  IC50: 11.7 µM
MCF7 [17]
  Activity: Active
MCF7 [18]
  Activity: inactive
[19]
  Activity: 14.7%
[20]
  IC50: ≥ 300 nM
MDA-MB-231 [21]
  fold change (FC): 2
MDA-MB-231 [22]
  IC50: 5.97 µM
MDA-MB-231 [23]
  fold change (FC): 6
MDA-MB-231 [24]
  fold change (FC): 1.3
MDA-MB-231 [25]
  fold change (FC): 0.6
MCF7 [26]
  fold change (FC): 1.2
MDA-MB-231 [27]
  fold change (FC): 1.1
MCF7 [28]
  Activity: Tde
MCF7 [29]
  Activity: 10.8%
MCF7 [30]
  Activity: 0.2%
MDA-MB-231 [31]
  Activity: 2.25%
MCF7 [32]
  fold change (FC): 1.01
MCF7 [33]
  fold change (FC): 1.2
MCF7 [34]
  fold change (FC): 0.6
[35]
  Activity: 0.5%
MCF7 [36]
  Activity: inactive
